Literature values in patent US20050143344A1, “Methods and compositions using immunomodulatory compounds for the treatment and management of central nervous system disorders or diseases” (priority 2003, published 2005).

Experiments:
[1] = for conversion in acetone and other anhydrous systems: acetone / anhydrous solvent systems
nigrostriatal neurons = details: lentiviral vector delivery

Nc1cccc2c1CN(C1CCC(=O)NC1=O)C2=O (stereo not drawn) [Form C, 3-(4-amino-1-oxo-1,3 dihydro-isoindol-2-yl)-piperidene-2,6-dione]
conversion at higher relative humidities [1]: can convert to Form B

Nc1cccc2c1CN(C1CCC(=O)NC1=O)C2=O (stereo not drawn) [Form B, 3-(4-amino-1-oxo-1,3 dihydro-isoindol-2-yl)-piperidene-2,6-dione]
conversion upon heating ([1]; 175° C. for about five minutes): can convert to Form F | conversion in acetone and other anhydrous systems [1]: converts to other forms | stability / conversion in aqueous solvent systems ([1]; aqueous solvent systems): converts to Form E

Nc1cccc2c1CN(C1CCC(=O)NC1=O)C2=O (stereo not drawn) [Form D, 3-(4-amino-1-oxo-1,3 dihydro-isoindol-2-yl)-piperidene-2,6-dione]
conversion at higher relative humidities [1]: will typically convert to Form B

Nc1cccc2c1CN(C1CCC(=O)NC1=O)C2=O (stereo not drawn) [Form E, 3-(4-amino-1-oxo-1,3 dihydro-isoindol-2-yl)-piperidene-2,6-dione]
conversion in THF solvent system ([1]; THF solvent system): to Form G | conversion upon heating (desolvation) ([1]; about 125° C. for about five minutes): can convert to Form B | conversion in acetone and other anhydrous systems [1]: can convert to Form C

B1: GDNF: glial cell line derived neurotrophic factor, delivered by lentiviral vectors to striatum and SN of rhesus monkeys (protein, UniProt P39905 78-211, looked up)
Glial cell line-derived …: SPDKQMAVLPRRERNRQAAAANPENSRGKGRRGQRGKNRGCVLTAIHLNVTDLGLGYETKEELIFRYCSGSCDAAETTYDKILKNLSRNRRLVSDKVGQACCRPIAFDDDLSFLDDNLVYHILRKHSAKRCGCI
modifications: lentiviral vector delivery
notes: glial cell line derived neurotrophic factor, delivered by lentiviral vectors to striatum and SN of rhesus monkeys
motor deficits (nigrostriatal neurons; MPTP treated monkeys): reversed | dopaminergic function (nigrostriatal neurons; aged monkeys): augmented | functional deficits (nigrostriatal neurons; monkeys treated with MPTP): reversed | nigrostriatal degeneration (nigrostriatal neurons; monkeys treated with MPTP): prevented
